Reference: patent US6306881A, “Anti-inflammatory agents” (British Biotech Pharmaceuticals, priority 1998, dated 2001)

How the values were obtained:
[1] = biological target: T1, LTA4-hydrolase (Rattus norvegicus, UniProt P30349); experiment: Inhibition of LTA4 hydrolase activity (LTB4 formation by radioimmunoassay); type: biochemical; settings: crude fraction from rat lung, 1 minute at 37° C.
T1 construct: was prepared as a crude fraction from rat lung tissue; from tissue; host or cells: rat lung tissue, crude fraction
T1 sequence (P30349 1-611): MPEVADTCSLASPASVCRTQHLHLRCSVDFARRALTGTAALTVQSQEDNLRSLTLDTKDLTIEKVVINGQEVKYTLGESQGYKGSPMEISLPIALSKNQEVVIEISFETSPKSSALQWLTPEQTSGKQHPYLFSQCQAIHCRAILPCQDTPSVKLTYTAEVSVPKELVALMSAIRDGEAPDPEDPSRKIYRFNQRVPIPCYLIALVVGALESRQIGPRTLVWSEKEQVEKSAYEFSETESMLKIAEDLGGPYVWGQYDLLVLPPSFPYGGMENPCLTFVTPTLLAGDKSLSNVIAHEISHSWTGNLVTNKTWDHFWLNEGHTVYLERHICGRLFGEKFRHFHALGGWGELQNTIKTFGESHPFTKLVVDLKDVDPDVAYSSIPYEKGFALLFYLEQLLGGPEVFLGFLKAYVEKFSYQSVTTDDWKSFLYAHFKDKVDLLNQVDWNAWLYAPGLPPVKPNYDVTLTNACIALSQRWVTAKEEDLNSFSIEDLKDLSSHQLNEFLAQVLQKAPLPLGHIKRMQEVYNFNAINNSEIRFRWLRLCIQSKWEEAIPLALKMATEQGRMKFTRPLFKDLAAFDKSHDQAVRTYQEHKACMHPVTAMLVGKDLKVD
Description: LTA4 -hydoiase was prepared as a crude fraction from rat lung tissue. The sodium salt of LTA4 was incubated with the enzyme and test compounds at 10 μM for 1 minute at 37° C. The reaction was terminated by the addition of ice-cold methanol. Formation of LTB4 was assessed by radioimmunoassay. Results are expressed as a percentage inhibition of LTA4 hydrolase activity.

[2] = test system: Leukotriene Synthesis by Rat Basophilic Leukaemia Cells; experiment: Inhibition of Leukotriene Synthesis by Rat Basophilic Leukaemia Cells (RBL-1, A23187 stimulated, LTB4); type: cell-based; settings: RBL-1 cells, 4.75 hours preincubation, 10 μM A23187, 15 minutes at 37° C., value estimated, read-out: IC50 (leukotriene B4 synthesis)
Description: Inhibition of Leukotriene Synthesis by Rat Basophilic Leukaemia Cells
The rat basophilic leukaemia cell line RBL-1 was obtained from ATCC or ECACC and cultured in Dulbecco's modified Eagle's medium (DMEM) supplemented with 10% foetal bovine serum, non-essential amino acids, sodium pyruvate, penicillin, streptomycin and 2mM glutamine, at 37° C. in an atmosphere of 5% CO2 in air, as recommended by the culture collection.
RBL-1 cells were harvested during log growth, washed and resuspended in Hanks Balanced Salt Solution, without calcium chloride and magnesium chloride, supplemented with 10% foetal bovine serum and penicillin, streptomycin, and 2mM glutamine and adjusted to a final cell concentration of 1.25×10^5 cells/ml. Cells incubated in the presence of the appropriate concentration of inhibitor or vehicle for 4.75 hours at 37° C. Cells then transferred to ice for 15 minutes. Cells washed by centrifugation and resuspension in prechilled Phosphate Buffered Saline, with calcium chloride and magnesium chloride, supplemented with the appropriate concentration of test sample. […]
Treated cells then exposed to 10 μM A23187 for 15 minutes at 37° C. […] The levels of leukotriene B4 then determined in the cell free supernatant using the Leukotriene B4 [^3 H] assay system from Amersham Pharmacia Biotech.

[3] = test system: male Lewis rats; experiment: Rat Adjuvant Arthritis Model; type: in vivo; settings: Day 10 to Day 21, vs vehicle, P<0.05
Description: Rat Adjuvant Arthritis Model
Adjuvant arthritis was induced in male Lewis rats on Day 0, using a suspension of mycobacterium butyncum in mineral oil, inoculated subcutaneously, into the base of the tail. The volume of the hind paws was measured regularly to assess the time course of disease progression. […] Nine animals were allocated to each group. Animals received their first treatment on Day 10, either vehicle (2% DMSO in PBSiTween (0.01%v/v)) or test compound, formulated as a suspension in the vehicle. Treatment was administered as an intraperitoneal bolus injection, once daily, for the duration of the study. The study was ended on Day 21. The percent increase in mean paw volume from Day 10 to Day 21 was calculated for each animal and the compound treated groups compared to the vehicle treated control group.

[4] = test system: LTA4 hydrolase; settings: isolated enzyme; T. D. Penning et al, 1995; cited from earlier work
[5] = test system: cells; settings: cited from earlier work

Row | inhibition at 10 µM [1] | IC50 [2] | SMILES | inhibition of paw swelling ([3]; 30mg/kg i.p. once daily) | inhibition of paw swelling ([3]; 100mg/kg i.p. once daily) | LTA4 hydrolase inhibitory activity [4] | ability to penetrate cells [5]
1 | 78% | 2 nM | C=CC[C@H](C(=O)NO)[C@@H](CC(C)C)C(=O)N[C@@H](Cc1ccccc1)C(=O)OC1CCCC1 [Example 19, 2S-(3S-Hydroxycarbamoyl-2R-isobutyl-hex-5-enoylamin)-3-phenylpropionic acid cyclopentyl ester] | 60% | 77% | – | –
2 | 75% | – | C=CC[C@H](C(=O)NO)[C@@H](CC(C)C)C(=O)N[C@H](C(=O)OC1CCCC1)c1ccccc1 [Example 40, 2S-(3S-Hydroxycarbamoyl-2R-isobutyl-hex-5-enoylamino)-2-phenylethanoic acid cyclopentyl ester] | – | – | – | –
3 | 80% | 350 nM | C[C@H](NC(=O)[C@@H](CC(=O)NO)Cc1ccccc1)C(=O)O [kelatorphan] | – | – | exhibit LTA4 hydrolase inhibitory activity against isolated enzyme | unable to effectively penetrate cells

The remaining lines, values behind:

Row | SMILES | inhibition at 10 µM [1] | IC50 [2] | inhibition of paw swelling ([3]; 30mg/kg i.p. once daily) | inhibition of paw swelling ([3]; 100mg/kg i.p. once daily) | LTA4 hydrolase inhibitory activity [4] | ability to penetrate cells [5]
4 | CC(C)C[C@H](NC(=O)[C@@H](O)[C@H](N)Cc1ccccc1)C(=O)O [bestatin] | – | – | – | – | exhibit LTA4 hydrolase inhibitory activity against isolated enzyme | unable to effectively penetrate cells
5 | C[C@H](CS)C(=O)N1CCC[C@H]1C(=O)O [captopril] | – | – | – | – | exhibit LTA4 hydrolase inhibitory activity against isolated enzyme | unable to effectively penetrate cells
